The subject of this experiment is LG0703-F498-PDC complex spheroid growth. The experiment can be described thus: Anticancer human tumor LG0703-F498-PDC patient-derived lung adenocarcinoma cell line growth inhibition [AhR]. The following applies: for IC50: curve of first compound; for viability, T/C: stronger effect = lower value. A digest of the protocol: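 Spheroids combined tumor cells with HUVEC endothelial cells and human MSCs as stroma. AhR antagonists were paired with standard or investigational drugs, each dosed in half-log steps down from near clinical Cmax, or from 10 microM where Cmax was unknown.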
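Note: luminescence taken as a proxy for viable cell amount.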
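Throughout, for viability, T/C: percent of DMSO vehicle control where 100% means growth equal to vehicle.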

Turning to `CC1COCCN1c1cc(C2(S(C)(=N)=O)CC2)nc(-c2ccnc3[nH]ccc23)n1` (stereo unspecified) + Cc1cncc(-c2nc(NCCc3c[nH]c4ccccc34)c3ncn(C(C)C)c3n2)c1, the concentration for half-maximal inhibition (IC50) (in general, the midpoint of a concentration-inhibition curve) reads like this: (second compound 0.1 µM) > 10 µM; (second compound 0.316 µM) > 10 µM; (second compound 1 µM) 9.33 µM; (second compound 3.16 µM) < 0.0316 µM; (second compound 10 µM) < 0.0316 µM. Moreover, the viability, T/C (commonly the ratio of treated to control) was 107% (second compound 0.1 µM, first compound 0.0316 µM); 104% (second compound 0.1 µM, first compound 0.1 µM); 92.5% (second compound 0.1 µM, first compound 0.316 µM); 96.4% (second compound 0.1 µM, first compound 1 µM); 97.2% (second compound 0.1 µM, first compound 3.16 µM); 59.2% (second compound 0.1 µM, first compound 10 µM). For the same compound, the viability, T/C is, setting by setting: (second compound 0.316 µM, first compound 0.0316 µM) 92.4%; (second compound 0.316 µM, first compound 0.1 µM) 110%; (second compound 0.316 µM, first compound 0.316 µM) 105%; (second compound 0.316 µM, first compound 1 µM) 110%; (second compound 0.316 µM, first compound 3.16 µM) 89.7%; (second compound 0.316 µM, first compound 10 µM) 54.5%. Further, the viability, T/C was 107% (second compound 1 µM, first compound 0.0316 µM); 91.2% (second compound 1 µM, first compound 0.1 µM); 101% (second compound 1 µM, first compound 0.316 µM); 94.8% (second compound 1 µM, first compound 1 µM); 89.9% (second compound 1 µM, first compound 3.16 µM); 46.9% (second compound 1 µM, first compound 10 µM). The viability, T/C reads like this: (second compound 3.16 µM, first compound 0.0316 µM) 18%; (second compound 3.16 µM, first compound 0.1 µM) 18.5%; (second compound 3.16 µM, first compound 0.316 µM) 25%; (second compound 3.16 µM, first compound 1 µM) 17.1%; (second compound 3.16 µM, first compound 3.16 µM) 13.5%; (second compound 3.16 µM, first compound 10 µM) 8.17%. Besides, the viability, T/C was 1.76% (second compound 10 µM, first compound 0.0316 µM); 1.78% (second compound 10 µM, first compound 0.1 µM); 1.04% (second compound 10 µM, first compound 0.316 µM); 1.58% (second compound 10 µM, first compound 1 µM); 0.93% (second compound 10 µM, first compound 3.16 µM); 1.14% (second compound 10 µM, first compound 10 µM).
Regarding `Cc1cncc(-c2nc(NCCc3c[nH]c4ccccc34)c3ncn(C(C)C)c3n2)c1`, for the setting “compound 10 µM”, the viability, T/C is 0.88% [middle of 19 runs].

For the origin of these results see PubChem BioAssay AID1919013 (Molecular Pharmacology Branch, DTP, NCI, 2023).
